Test results reported in PubChem BioAssay (NCI).
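Each compound was tested at five concentrations against cells in 96-well plates for 48 hours. At the GI50, growth is halved. At the TGI there is no net growth.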

Key:
Experiment in all cases: growth of human tumour cells (NCI), 48 h
MDA-MB-468 breast = system: MDA-MB-468 breast
786-0 renal = system: 786-0 renal
A498 renal = system: A498 renal
A549 NSCLC = system: A549 NSCLC
ACHN renal = system: ACHN renal
BT-549 breast = system: BT-549 breast
CAKI-1 renal = system: CAKI-1 renal
CCRF-CEM leukemia = system: CCRF-CEM leukemia
COLO 205 colon = system: COLO 205 colon
DU-145 prostate = system: DU-145 prostate
EKVX NSCLC = system: EKVX NSCLC
HCC-2998 colon = system: HCC-2998 colon
HCT-116 colon = system: HCT-116 colon
HCT-15 colon = system: HCT-15 colon
HL-60(TB) leukemia = system: HL-60(TB) leukemia
HOP-62 NSCLC = system: HOP-62 NSCLC
HOP-92 NSCLC = system: HOP-92 NSCLC
HS 578T breast = system: HS 578T breast
HT29 colon = system: HT29 colon
IGROV1 ovarian = system: IGROV1 ovarian
K-562 leukemia = system: K-562 leukemia
KM12 colon = system: KM12 colon
LOX IMVI melanoma = system: LOX IMVI melanoma
MALME-3M melanoma = system: MALME-3M melanoma
MCF7 breast = system: MCF7 breast
MDA-MB-231 breast = system: MDA-MB-231 breast
MOLT-4 leukemia = system: MOLT-4 leukemia
NCI-H226 lung = system: NCI-H226 lung
NCI-H23 lung = system: NCI-H23 lung
NCI-H460 lung = system: NCI-H460 lung
NCI-H522 lung = system: NCI-H522 lung
OVCAR-3 ovarian = system: OVCAR-3 ovarian
OVCAR-4 ovarian = system: OVCAR-4 ovarian
OVCAR-5 ovarian = system: OVCAR-5 ovarian
OVCAR-8 ovarian = system: OVCAR-8 ovarian
PC-3 prostate = system: PC-3 prostate
RPMI-8226 leukemia = system: RPMI-8226 leukemia
RXF 393 renal = system: RXF 393 renal
SF-268 CNS = system: SF-268 CNS
SF-295 CNS = system: SF-295 CNS
SF-539 CNS = system: SF-539 CNS
SK-MEL-28 melanoma = system: SK-MEL-28 melanoma
SK-MEL-5 melanoma = system: SK-MEL-5 melanoma
SK-OV-3 ovarian = system: SK-OV-3 ovarian
SN12C renal = system: SN12C renal
SNB-19 CNS = system: SNB-19 CNS
SNB-75 CNS = system: SNB-75 CNS
SR leukemia = system: SR leukemia
SW-620 colon = system: SW-620 colon
T-47D breast = system: T-47D breast
TK-10 renal = system: TK-10 renal
U251 CNS = system: U251 CNS
UACC-257 melanoma = system: UACC-257 melanoma
UACC-62 melanoma = system: UACC-62 melanoma
UO-31 renal = system: UO-31 renal

Q: What does the source list for CC(C)CCC[C@@H](C)[C@H]1CC[C@H]2[C@@H]3CC=C4C[C@@H](C(C(=O)O)C(=O)O)CC[C@]4(C)[C@H]3CC[C@]12C?
A: GI50 (MDA-MB-468 breast): 337 nM; TGI (MDA-MB-468 breast): 892 nM

Q: Which GI50 (MDA-MB-468 breast) does the source give for COc1ccc2c(C3=C(c4cn(C)c5ccccc45)C(=O)NC3=O)cn(C)c2c1 here?
A: 112 nM

Q: What about the TGI (MDA-MB-468 breast) of the same compound?
A: 10200 nM

Q: For COc1ccc2[nH]cc(-c3csc4nc(-c5ccccc5)cn34)c2c1, which GI50 (MDA-MB-468 breast) is on record?
A: 362 nM

Q: What about the TGI (MDA-MB-468 breast) of the same compound?
A: 2070 nM

Q: How did the GI50 (MDA-MB-468 breast) turn out when Nc1nc(-c2cccc([N+](=O)[O-])c2)c(N=Nc2cccc([N+](=O)[O-])c2)s1 was run?
A: 30500 nM

Q: And the TGI (MDA-MB-468 breast)?
A: > 100000 nM

Q: Which results are given for O=C(/C=C/C12c3ccccc3C(c3ccccc31)C1C(=O)NC(=O)C12)c1ccncc1 (stereo not given)?
A: GI50 (MDA-MB-468 breast): 1820 nM; TGI (MDA-MB-468 breast): 4020 nM

Q: Which GI50 (786-0 renal) does the source give for NC(=Nc1ccc(OCCCCCCCCn2cnnn2)cc1)c1ccccc1 here?
A: 507 nM

Q: And the TGI (786-0 renal)?
A: 30900 nM

Q: And the GI50 (A498 renal)?
A: 17400 nM

Q: What about the TGI (A498 renal) of the same compound?
A: 63400 nM

Q: And the GI50 (A549 NSCLC)?
A: 586 nM

Q: And the TGI (A549 NSCLC)?
A: > 100000 nM

Q: What about the GI50 (ACHN renal) of the same compound?
A: 659 nM

Q: What about the TGI (ACHN renal) of the same compound?
A: 62000 nM

Q: What about the GI50 (BT-549 breast) of the same compound?
A: 836 nM

Q: What about the TGI (BT-549 breast) of the same compound?
A: 18800 nM

Q: And the GI50 (CAKI-1 renal)?
A: 324 nM

Q: And the TGI (CAKI-1 renal)?
A: 46100 nM

Q: What about the GI50 (CCRF-CEM leukemia) of the same compound?
A: 358 nM

Q: And the TGI (CCRF-CEM leukemia)?
A: 38200 nM

Q: And the GI50 (COLO 205 colon)?
A: 284 nM

Q: What about the TGI (COLO 205 colon) of the same compound?
A: 1860 nM

Q: And the GI50 (DU-145 prostate)?
A: 438 nM

Q: And the TGI (DU-145 prostate)?
A: > 100000 nM

Q: And the GI50 (EKVX NSCLC)?
A: 418 nM

Q: And the TGI (EKVX NSCLC)?
A: > 100000 nM

Q: And the GI50 (HCC-2998 colon)?
A: 494 nM

Q: And the TGI (HCC-2998 colon)?
A: 11700 nM

Q: What about the GI50 (HCT-116 colon) of the same compound?
A: 353 nM

Q: What about the TGI (HCT-116 colon) of the same compound?
A: 13800 nM

Q: And the GI50 (HCT-15 colon)?
A: 272 nM

Q: What about the TGI (HCT-15 colon) of the same compound?
A: 15400 nM

Q: What about the GI50 (HL-60(TB) leukemia) of the same compound?
A: 246 nM

Q: And the TGI (HL-60(TB) leukemia)?
A: 846 nM

Q: What about the GI50 (HOP-62 NSCLC) of the same compound?
A: 439 nM

Q: And the TGI (HOP-62 NSCLC)?
A: 18900 nM

Q: And the GI50 (HOP-92 NSCLC)?
A: 8000 nM

Q: What about the TGI (HOP-92 NSCLC) of the same compound?
A: 59400 nM

Q: What about the GI50 (HS 578T breast) of the same compound?
A: 307 nM

Q: And the TGI (HS 578T breast)?
A: 48800 nM

Q: And the GI50 (HT29 colon)?
A: 269 nM

Q: And the TGI (HT29 colon)?
A: 2260 nM

Q: And the GI50 (IGROV1 ovarian)?
A: 717 nM

Q: What about the TGI (IGROV1 ovarian) of the same compound?
A: 21800 nM

Q: What about the GI50 (K-562 leukemia) of the same compound?
A: 183 nM

Q: What about the TGI (K-562 leukemia) of the same compound?
A: > 55100 nM

Q: And the GI50 (KM12 colon)?
A: 423 nM

Q: And the TGI (KM12 colon)?
A: > 73100 nM

Q: What about the GI50 (LOX IMVI melanoma) of the same compound?
A: 488 nM

Q: And the TGI (LOX IMVI melanoma)?
A: 13900 nM

Q: And the GI50 (MALME-3M melanoma)?
A: 266 nM

Q: What about the TGI (MALME-3M melanoma) of the same compound?
A: 18200 nM

Q: What about the GI50 (MCF7 breast) of the same compound?
A: 157 nM

Q: What about the TGI (MCF7 breast) of the same compound?
A: 18900 nM

Q: What about the GI50 (MDA-MB-231 breast) of the same compound?
A: 439 nM

Q: What about the TGI (MDA-MB-231 breast) of the same compound?
A: 9700 nM

Q: What about the GI50 (MDA-MB-468 breast) of the same compound?
A: 167 nM

Q: And the TGI (MDA-MB-468 breast)?
A: 695 nM

Q: And the GI50 (MOLT-4 leukemia)?
A: 460 nM

Q: What about the TGI (MOLT-4 leukemia) of the same compound?
A: > 72200 nM

Q: And the GI50 (NCI-H226 lung)?
A: 321 nM

Q: And the TGI (NCI-H226 lung)?
A: 4550 nM

Q: And the GI50 (NCI-H23 lung)?
A: 436 nM

Q: And the TGI (NCI-H23 lung)?
A: 20100 nM

Q: What about the GI50 (NCI-H460 lung) of the same compound?
A: 343 nM

Q: And the TGI (NCI-H460 lung)?
A: 19000 nM

Q: What about the GI50 (NCI-H522 lung) of the same compound?
A: 201 nM

Q: What about the TGI (NCI-H522 lung) of the same compound?
A: 720 nM

Q: And the GI50 (OVCAR-3 ovarian)?
A: 398 nM

Q: And the TGI (OVCAR-3 ovarian)?
A: > 52000 nM

Q: What about the GI50 (OVCAR-4 ovarian) of the same compound?
A: 12400 nM

Q: What about the TGI (OVCAR-4 ovarian) of the same compound?
A: > 100000 nM

Q: And the GI50 (OVCAR-5 ovarian)?
A: 458 nM

Q: And the TGI (OVCAR-5 ovarian)?
A: > 41500 nM

Q: What about the GI50 (OVCAR-8 ovarian) of the same compound?
A: 490 nM

Q: What about the TGI (OVCAR-8 ovarian) of the same compound?
A: > 64800 nM

Q: What about the GI50 (PC-3 prostate) of the same compound?
A: 454 nM

Q: What about the TGI (PC-3 prostate) of the same compound?
A: 97700 nM

Q: And the GI50 (RPMI-8226 leukemia)?
A: 364 nM

Q: What about the TGI (RPMI-8226 leukemia) of the same compound?
A: 19600 nM

Q: What about the GI50 (RXF 393 renal) of the same compound?
A: 216 nM

Q: And the TGI (RXF 393 renal)?
A: 752 nM

Q: What about the GI50 (SF-268 CNS) of the same compound?
A: 6870 nM

Q: What about the TGI (SF-268 CNS) of the same compound?
A: > 79700 nM

Q: What about the GI50 (SF-295 CNS) of the same compound?
A: 281 nM

Q: What about the TGI (SF-295 CNS) of the same compound?
A: 12400 nM

Q: What about the GI50 (SF-539 CNS) of the same compound?
A: 223 nM

Q: What about the TGI (SF-539 CNS) of the same compound?
A: 606 nM

Q: And the GI50 (SK-MEL-28 melanoma)?
A: 783 nM

Q: And the TGI (SK-MEL-28 melanoma)?
A: > 49200 nM

Q: And the GI50 (SK-MEL-5 melanoma)?
A: 282 nM

Q: What about the TGI (SK-MEL-5 melanoma) of the same compound?
A: 1420 nM

Q: What about the GI50 (SK-OV-3 ovarian) of the same compound?
A: 439 nM

Q: What about the TGI (SK-OV-3 ovarian) of the same compound?
A: 35900 nM

Q: What about the GI50 (SN12C renal) of the same compound?
A: 472 nM

Q: And the TGI (SN12C renal)?
A: 18200 nM

Q: And the GI50 (SNB-19 CNS)?
A: 594 nM

Q: And the TGI (SNB-19 CNS)?
A: > 100000 nM

Q: What about the GI50 (SNB-75 CNS) of the same compound?
A: 400 nM

Q: What about the TGI (SNB-75 CNS) of the same compound?
A: 50200 nM

Q: What about the GI50 (SR leukemia) of the same compound?
A: 75.2 nM

Q: And the TGI (SR leukemia)?
A: > 50500 nM

Q: And the GI50 (SW-620 colon)?
A: 352 nM

Q: What about the TGI (SW-620 colon) of the same compound?
A: > 100000 nM

Q: What about the GI50 (T-47D breast) of the same compound?
A: 392 nM

Q: And the TGI (T-47D breast)?
A: 63200 nM

Q: And the GI50 (TK-10 renal)?
A: 3060 nM

Q: And the TGI (TK-10 renal)?
A: > 83700 nM

Q: And the GI50 (U251 CNS)?
A: 383 nM

Q: What about the TGI (U251 CNS) of the same compound?
A: > 63500 nM

Q: And the GI50 (UACC-257 melanoma)?
A: 8360 nM

Q: What about the TGI (UACC-257 melanoma) of the same compound?
A: > 60000 nM

Q: What about the GI50 (UACC-62 melanoma) of the same compound?
A: 442 nM

Q: And the TGI (UACC-62 melanoma)?
A: 19900 nM

Q: And the GI50 (UO-31 renal)?
A: 555 nM

Q: What about the TGI (UO-31 renal) of the same compound?
A: 40800 nM
